In patent US7449477B2, “7-phenyl-isoquinoline-5-sulfonylamino derivatives as inhibitors of akt (protein kinase B)” (Eli Lilly and Company, priority 2003, dated 2008):
Counter-ions that a name gives are not always drawn.

target: T1, active human Akt1 (Homo sapiens, UniProt P31749); assay: Akt1 Phosphorylation Assay (phosphocellulose filter-binding, 33P-Crosstide); assay type: biochemical; conditions: active human recombinant Akt1 (full-length) 10 nM; 12.5 μM Crosstide; 20 μM ATP; 30 minutes at room temperature
T1 construct: Active human recombinant Akt1 (full-length) purified from Sf9 insect cells; purchased Upstate Biotechnology, Inc. 14-276; host or cells: Sf9 insect cells
Procedure, shortened: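 Full-length active human Akt1 (Sf9-expressed, 10 nM) phosphorylated 12.5 μM Crosstide with 20 μM ATP plus 1 μCi γ-33P-ATP in 35 mM HEPES pH 7.3, 15 mM MgCl2, 0.4 mM DTT, 4% DMSO. After 30 min at room temperature, H3PO4-stopped reactions were captured on phosphocellulose filters, washed and scintillation-counted.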

T1 sequence (P31749 whole entry): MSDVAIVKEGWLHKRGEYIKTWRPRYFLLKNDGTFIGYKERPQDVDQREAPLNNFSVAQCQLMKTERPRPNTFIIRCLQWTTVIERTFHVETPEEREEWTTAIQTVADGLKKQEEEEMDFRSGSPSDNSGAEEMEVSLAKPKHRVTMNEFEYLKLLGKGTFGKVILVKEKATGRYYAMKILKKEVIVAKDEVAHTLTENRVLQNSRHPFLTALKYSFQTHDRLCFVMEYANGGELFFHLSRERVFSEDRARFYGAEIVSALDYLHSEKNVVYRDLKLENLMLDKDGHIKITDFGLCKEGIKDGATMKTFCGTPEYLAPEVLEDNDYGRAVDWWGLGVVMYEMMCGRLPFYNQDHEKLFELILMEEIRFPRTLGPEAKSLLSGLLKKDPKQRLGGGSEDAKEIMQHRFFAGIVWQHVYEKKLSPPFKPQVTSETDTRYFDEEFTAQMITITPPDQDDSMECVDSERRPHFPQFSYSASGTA

IC50, ≤ 2 µM:
Cc1cc(C#N)ccc1CCCNCCNS(=O)(=O)c1cc(-c2ccccc2)cc2cnccc12 [Example 104, 7-Phenyl-isoquinoline-5-sulfonic acid {2-[3-(4-cyano-2-methyl-phenyl)-propylamino]-ethyl}-amide, dihydrochloride salt]
CN1CCC(Oc2cc(Cl)ccc2CCCNCCNS(=O)(=O)c2cc(-c3ccccc3)cc3cnccc23)C1 (centres unmarked) [Example 55, 7-Phenyl-isoquinoline-5-sulfonic acid {2-[3-(4-chloro-2-(1-methyl-pyrrolidin-3-yl)oxy-phenyl)-propylamino]-ethyl}-amide, trihydrochloride salt]
O=S(=O)(NCCNCCC(O)c1ccc(S(=O)(=O)C(F)(F)F)cc1)c1cc(-c2ccccc2)cc2cnccc12 (centres unmarked) [Example 80, 7-Phenyl-isoquinoline-5-sulfonic acid [2-(3-hydroxy-3-(4-trifuoromethanesulfonyl-phenyl)-propylamino)-ethyl]-amide, dihydrochloride salt]
CSc1ccc(CCCNCCNS(=O)(=O)c2cc(-c3ccccc3)cc3cnccc23)cc1 [Example 35, 7-Phenyl-isoquinoline-5-sulfonic acid {2-[3-(4-methylthiophenyl)-propylamino]-ethyl}-amide, dihydrochloride salt]
O=[N+]([O-])c1cccc(C(O)CCNCCNS(=O)(=O)c2cc(-c3ccccc3)cc3cnccc23)c1 (centres unmarked) [Example 77, 7-Phenyl-isoquinoline-5-sulfonic acid [2-(3-hydroxy-3-(3-nitrophenyl)-propylamino)-ethyl]-amide, dihydrochloride salt]
O=[N+]([O-])c1ccc(CCCNCCNS(=O)(=O)c2cc(-c3ccccc3)cc3cnccc23)cc1 [Example 3, 7-Phenyl-isoquinoline-5-sulfonic acid {2-[3-(4-nitrophenyl)-propylamino]-ethyl}-amide, dihydrochloride salt]
O=[N+]([O-])c1ccc(CCCNCCNS(=O)(=O)c2cc(-c3ccccc3)cc3cnccc23)cc1O [Example 105, 7-Phenyl-isoquinoline-5-sulfonic acid {2-[3-(3-hydroxy-4-nitro-phenyl)-propylamino]-ethyl}-amide, dihydrochloride salt]
O=S(=O)(NCCNCCCc1cccc(O)c1)c1cc(-c2cccc(O)c2)cc2cnccc12 [Example 107, 7-(3-Hydroxy-phenyl)-isoquinoline-5-sulfonic acid {2-[3-(3-hydroxy-phenyl)-propylamino]-ethyl}-amide]
O=[N+]([O-])c1ccc(CC(O)CNCCNS(=O)(=O)c2cc(-c3ccccc3)cc3cnccc23)cc1 (single isomer, unassigned; isomer 1) [Example 85, 7-Phenyl-isoquinoline-5-sulfonic acid [2-(2-hydroxy-3-(4-nitrophenyl)-propylamino)-ethyl]-amide isomer 1, dihydrochloride salt]
O=[N+]([O-])c1ccc(C(O)CCNCCNS(=O)(=O)c2cc(-c3ccccc3)cc3cnccc23)cc1 (centres unmarked) [Example 73, 7-Phenyl-isoquinoline-5-sulfonic acid [2-(3-hydroxy-3-(4-nitrophenyl)-propylamino)-ethyl]-amide, dihydrochloride salt]
O=[N+]([O-])c1ccc(CCCNCCNS(=O)(=O)c2cc(-c3cccc(O)c3)cc3cnccc23)cc1 [Example 99, 7-(3-hydroxy-phenyl)-isoquinoline-5-sulfonic acid {2-[3-(4-nitro-phenyl)-propylamino]-ethyl}-amide, dihydrochloride salt]
